# Results taken from US12674139B2, “Serum-free medium not containing albumin and suited for culturing human hematopoietic stem cells, and albumin-free culturing method” (The University of Tokyo, priority 2019, dated 2026).
# Non-standard residues stand in square brackets, D forms with d. No end group written: not given here. pY = N[C@@H](Cc1ccc(OP(=O)(O)O)cc1)C(=O)O
# Tests used:
# Mpl32D cells = test: Culture with TPO receptor agonists as TPO replacements, with albumin or PVA; assay type: cell-based, human; details: 0.1 μM butyzamide, 3 μg/mL eltrombopag, 3 μM avatrombopag
# Description: Subsequently, whether or not TPO can be replaced with a TPO receptor agonist in culture of human hematopoietic stem cells was examined. Butyzamide, eltrombopag, and avatrombopag are known as TPO receptor agonists. Human hematopoietic stem cells were cultured in the presence of 0.1% recombinant human serum albumin (Albumin Biosciences) or in the presence of PVA in the above-mentioned culture medium having a composition from which TPO was removed and to which 0.1 μM butyzamide, 3 μg/mL eltrombopag, or 3 μM avatrombopag was added. In this experiment, Mpl32D cells were used as human hematopoietic stem cells.
# human CD34+ cells [1] = test: Colony assay in MethoCult H4415 medium with Giemsa staining; assay type: cell-based; details: cells after 7 days culture; 20 μM PI3Ka + 0.1 μM butyzamide versus PI3Ka + TPO
# Excerpt: Subsequently, whether or not SCF and TPO can be replaced with PI3Ka and a TPO receptor agonist in the absence of albumin and in the presence of PVA was examined. In the following example, butyzamide was used as a TPO receptor agonist. Purchased human bone marrow CD34+ cells (distributor name, Lonza; product number 2C-101) or CD34+ cells isolated from given fresh umbilical cord blood using microbeads as described above were used in the culture experiment. […] Two weeks later, colonies were picked up, cytospin specimens were prepared, Giemsa staining was performed, and then the types of colonies were determined under a microscope. The number of GEmM colonies per 50 CD34+ cells was counted, and the percentage increase in the number of colonies compared with before culture was obtained.
# Further, 100 CD34+ cells obtained in the culture at […] after the start of culture were seeded each on a MethoCult™ H4415 medium, and a colony assay was performed. […] Then, after Giemsa staining was performed for the specimens, the types of colonies were determined under a microscope.
# human CD34+ cells [2] = test: Culture of human bone marrow or umbilical cord blood CD34+ cells in PVA medium, proliferation rate by cell count and flow cytometry; details: for ratio of number of cells at day 7 relative to first day of culture: TPO replaced with TPO receptor agonist; for proliferation rate of total cells and CD34+ cells relative to start of culture: neither SCF nor TPO, 20 μM PI3Ka, 0.1 μM TPOago or both
# Description: The cells were dispensed to a 24-well plate at 0.2 to 1.0×10^5 cells per well, TPO was removed from a culture medium for human hematopoietic stem cells and replaced with any of the above-mentioned TPO receptor agonists (hereinafter, may be referred to as “TPOago”) to perform the experiment. The ratio of the number of cells at day 7 of culture relative to the first day of culture was obtained.
# Subsequently, whether or not SCF and TPO can be replaced with PI3Ka and a TPO receptor agonist in the absence of albumin and in the presence of PVA was examined. In the following example, butyzamide was used as a TPO receptor agonist. […] Seven days later, the number of total cells was obtained, and the number of CD34+ cells was obtained by flow cytometry. Then, the proliferation rate compared with the start of culture was obtained.
# Further, subsequently, a culture experiment of human hematopoietic stem cells was performed in a culture medium comprising neither SCF nor TPO to which 20 μM PI3Ka or 0.1 μM TPOago or both were added.
# Further, subsequently, which cell population easily proliferated in a medium in which SCF and TPO were replaced with PI3Ka and TPOago was examined. CD34^+ cells isolated from given fresh umbilical cord blood using microbeads as described above were used in the culture experiment.
# The cells were dispensed to a 24-well plate at 0.2×10^5 to 1.0×10^5 cells per well, and CD34^+ cells were cultured in the prepared media.
# [3] = test system: human hematopoietic stem cells (CD34+CD38− cells); test: Proliferation of human hematopoietic stem cells in albumin-free serum-free PVA medium; assay type: cell-based; details: no albumin
# Description: In this example, an assay was performed in which mouse hematopoietic stem cells (KSL cells) and human hematopoietic stem cells (CD34^+CD38^− cells) were allowed to proliferate in a culture medium not comprising albumin. The culture medium was a serum-free medium comprising polyvinyl alcohol (PVA) and not comprising albumin, as described in Wilkinson et al., Nature, 571:117-121, 2019.
# Specifically, the culture medium used for culture of mouse hematopoietic stem cells was an F12 medium comprising 1% insulin-transferrin-selenium-ethanolamine (ITSX), 10 mM HEPES, 1% penicillin-streptomycin-glutamine, 100 ng/mL mouse thrombopoietin (mTPO), and 10 ng/mL mouse stem cell factor (mSCF). The medium comprised PVA at the final concentration of 0.1%. The culture medium used for culture of human hematopoietic stem cells was an IMDM medium comprising 1% insulin-transferrin-selenium-ethanolamine (ITSX), 25 mM HEPES, 1% penicillin-streptomycin-glutamine, 100 ng/mL human thrombopoietin (hTPO), and 10 ng/mL human stem cell factor (hSCF). The medium comprised PVA at the final concentration of 0.1%.
# Unless otherwise specified, all media used in the following examples were an IMDM medium comprising 1% insulin-transferrin-selenium-ethanolamine (ITSX), 25 mM HEPES, 1% penicillin-streptomycin-glutamine, and PVA (hereinafter, also referred to as “common medium”). Therefore, hereinafter, description of the medium will be focused on components added to the common medium. For example, given that the above-mentioned medium comprises TPO and SCF in addition to the common medium, it is to be referred to as a TPO+SCF medium for the purpose of convenience. […]
# Accordingly, human hematopoietic stem cells were cultured in a culture medium comprising 0.3 μM AKTa (name of distributer, Sigma-Aldrich; product number 123871) or 20 μM PI3Ka. Cells were counted after 3 days, 5 days, and 7 days of culture, and the ratios of the number of cells at each time point to the number of cells on the first day of culture, which was standardized as 1, were obtained. […]
# [4] = 0.1% recombinant human serum albumin, no TPO
# [5] = day 7, 20 μM PI3Ka + TPO 100 ng/mL
Molecule,proliferation (change with time in number of cells) (Mpl32D cells; [4]),"proliferation (change with time in number of cells) (Mpl32D cells; PVA, no albumin)",GEmM colony forming ability (number of GEmM colonies per 50 CD34+ cells) (human CD34+ cells [1]),"ratio of number of cells at day 7 relative to first day of culture (human CD34+ cells [2]; PVA, no albumin)","proliferation rate of total cells and CD34+ cells compared with start of culture (human CD34+ cells [2]; day 7, 20 μM PI3Ka + 0.1 μM butyzamide versus 20 μM PI3Ka + TPO 100, PVA, no albumin, no SCF)","proliferation rate of total cells and CD34+ cells relative to start of culture (human CD34+ cells [2]; day 7, PVA, no albumin)","ratio of number of cells to first day of culture ([3]; 3, 5, 7 days, SCF 10 ng/mL + TPO 100 ng/mL, 0.3 μM AKTa or 20 μM PI3Ka)","number of CD34+ cells, with SCF versus without SCF [3, 5]","number of total cells, with SCF versus without SCF [3, 5]","proliferation rate of total cells relative to before start of culture (human CD34+ cells [2]; day 14, added to 20 μM PI3Ka + 0.1 μM TPOago, SR-1 500 nM, UM171 35 nM)"
"CCCOC(c1cccc(-c2csc(NC(=O)c3cc(Cl)c(C=C(C)C(=O)O)c(Cl)c3)n2)c1OC)C(C)(C)C (centres unmarked) [butyzamide, 3-[4-[[[4-[2-methoxy-3-(1-tert-butyl-2-oxapentan-1-yl)phenyl]thiazol-2-yl]amino]carbonyl]-2,6-dichlorophenyl]-2-methylpropenoic acid]",could support proliferation,marked proliferative effect,could completely replace TPO,significantly proliferated,could completely replace TPO,increases of cells were not observed,,,,
PI3Ka: peptide of amino acid sequence RQIKIWFQNRRMKWKKSDGGYMDMS in which Y is phosphorylated; Tocris product number 1983 (RQIKIWFQNRRMKWKKSDGG[pY]MDMS),,,,,,increases of cells were not observed,clearly proliferated,no significant difference,no significant difference,
O=C(Nc1nc(-c2cc(Cl)cs2)c(N2CCN(C3CCCCC3)CC2)s1)c1cnc(N2CCC(C(=O)O)CC2)c(Cl)c1 [avatrombopag],could support proliferation,low effect,,Death of hematopoietic stem cells occurred,,,,,,
CC(C)n1cnc2c(NCCc3ccc(O)cc3)nc(-c3csc4ccccc34)nc21 [SR-1],,,,,,,,,,killed cells
